Measured values from ChEMBL document CHEMBL1140688, “Sulfenamides as prodrugs of NH-acidic compounds: a new prodrug option for the amide bond” (Bioorg Med Chem Lett, 2007).

Assays:
Assay type in all cases: physicochemical
Conditions in all cases: buffer
[1] = Chemical stability assessed as half life at pH 6.0
[2] = Chemical stability assessed as half life at pH 6.5
[3] = Chemical stability assessed as half life at pH 7.0

half-life [1]: 8.9 days | half-life [2]: 3.4 days | half-life [3]: 2.1 days
SMILES: CCOC(=O)[C@@H](N)CSNC(=O)N1c2ccccc2C=Cc2ccccc21
